Reference: US20040191833A1, “Selective activation of cellular activities mediated through a common toll-like receptor” (3M Innovative Properties Company, priority 2003, published 2004)

Columns and labels:
human TLR7 [1] = target: T1, human TLR7 (Homo sapiens, UniProt Q9NYK1); assay: TLR7 activation in HEK293 cells (NF-kB-luc luciferase reporter, H-TLR7/H-vector); type: cell-based; conditions: final IRM concentration 10 μM, 16 hours, normalized to the DMSO without compound control
T1 construct: expressed in transfected cells; host or cells: Namalwa cells (ATCC CRL-1432), pCI-neo vector, electroporated, G418 selected, with pIFN-α1-luc reporter
T1 sequence (Q9NYK1 27-1049): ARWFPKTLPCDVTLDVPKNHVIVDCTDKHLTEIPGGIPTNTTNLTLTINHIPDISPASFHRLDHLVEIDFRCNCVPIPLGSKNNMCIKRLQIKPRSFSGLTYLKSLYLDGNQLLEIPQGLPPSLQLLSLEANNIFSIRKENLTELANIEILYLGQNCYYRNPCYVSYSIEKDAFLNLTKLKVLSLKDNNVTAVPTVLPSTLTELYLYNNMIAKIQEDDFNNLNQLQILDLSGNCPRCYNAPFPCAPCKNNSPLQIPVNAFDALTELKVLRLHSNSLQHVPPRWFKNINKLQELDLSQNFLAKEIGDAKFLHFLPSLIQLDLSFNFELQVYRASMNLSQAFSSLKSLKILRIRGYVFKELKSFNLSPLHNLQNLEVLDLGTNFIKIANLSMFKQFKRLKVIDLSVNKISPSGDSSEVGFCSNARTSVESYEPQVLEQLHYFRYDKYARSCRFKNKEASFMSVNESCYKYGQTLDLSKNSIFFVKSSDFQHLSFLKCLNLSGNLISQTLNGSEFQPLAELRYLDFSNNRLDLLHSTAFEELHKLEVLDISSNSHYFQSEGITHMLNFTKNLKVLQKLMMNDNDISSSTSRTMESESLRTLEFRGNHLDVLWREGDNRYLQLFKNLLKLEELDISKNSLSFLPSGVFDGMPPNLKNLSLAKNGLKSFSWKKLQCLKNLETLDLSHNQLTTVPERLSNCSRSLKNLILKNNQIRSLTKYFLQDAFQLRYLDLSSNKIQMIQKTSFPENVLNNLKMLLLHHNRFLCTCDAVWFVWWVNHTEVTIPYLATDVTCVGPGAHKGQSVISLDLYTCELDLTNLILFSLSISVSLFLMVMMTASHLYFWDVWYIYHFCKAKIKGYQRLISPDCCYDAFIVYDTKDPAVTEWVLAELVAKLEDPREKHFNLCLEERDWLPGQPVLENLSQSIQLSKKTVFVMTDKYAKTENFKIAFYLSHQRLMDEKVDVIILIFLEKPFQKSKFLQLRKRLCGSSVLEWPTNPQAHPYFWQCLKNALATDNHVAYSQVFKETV
Experimental: (§1) In one embodiment, exemplified in Example 1, selective modulation of TLR7-mediated NF-κB activation and TLR7-mediated IFN-α1 induction were assayed. NF-κB activation was measured in genetically modified HEK293 cells (H-TLR7) by detecting TLR7-mediated NF-κB-dependent transcription of a luciferase reporter. IFN-α1 induction was measured in genetically modified Namalwa cells (N-TLR7) by detecting TLR-mediated IFN-α1-induced transcription of a luciferase reporter. Results are shown in Table 2 and are expressed as the fold increase in TLR7-mediated luciferase signal—(H-TLR7/H-vector) and (N-TLR7/N-vector), respectively—normalized to a control in which the cells were treated with vehicle that contained no IRM compound. In this assay, a compound was considered to induce the TLR7-mediated cellular activity if the compound generated at least a two-fold increase in the luciferase signal compared to the vector control.
HEK293 medium was prepared from 90% Minimum Essential Medium (MEM) with 2 mM L-glutamine and Earle's Balanced Salt Solution (Invitrogen Corp., Rockville, Md.) adjusted to contain 1.5 g/L sodium bicarbonate, 0.1 mM non-essential amino acids, and 1.0 mM sodium pyruvate; 10% heat-inactivated fetal calf serum. HEK293 cells were cultured by incubating cells in HEK293 medium overnight at 37° C, 8% CO2.
Twenty-four hours before transfection, HEK293 cells were adhered to a 10 cm dish (Corning 430167, Corning Inc., Corning, N.Y.) at 37° C., 8% CO2. The cells were co-transfected with (1) pIRES (BD Biosciences Clontech, Palo Alto, Calif.) either (a) unmodified (H-vector), or (b) containing an expressible human TLR7 gene (H-TLR7), and (2) NF-kB-luc reporter (Stratagene, La Jolla, Calif.) in a 10:1 ratio with Fugene 6 transfection reagent (Roche Diagnostics Corp., Indianapolis, Ind.) following the manufacturer's instructions. The plates were incubated for 24 hours following transfection and then selected in G-418 (400 μg/mL) for two weeks. The G-418-resistant cells containing either the expressible TLR7 gene or the empty vector were expanded in HEK293 medium supplemented with G-418 for stimulation experiments.
The transfected cells were plated in white opaque 96 well plates (Costar 3917, Corning Inc., Corning, N.Y.) at a concentration of 5×10^4 cells per well in 100 μL of HEK293 media and incubated at 37° C., 8% CO2 for 4 hours. The cells were stimulated with 1 μL of IRM compounds at 1 mM in DMSO (final IRM concentration of 10 μM) or 1 μL DMSO as a control. The plates were then incubated an additional 16 hours at 37° C., 5% CO2. The luciferase signal was read using the LucLite kit (Packard Instrument Co., Meriden, Conn.). Luminescence was measured on an LMAX luminometer (Molecular Devices Corp., Sunnyvale, Calif.).
(§2) The data are expressed as fold increase in TLR7-mediated luciferase signal—(H-TLR7/H-vector) and (N-TLR7/N-vector), respectively—normalized to the DMSO without compound control.

human TLR7 [2] = target: T1, human TLR7; assay: TLR7 activation in Namalwa cells (IFN-α1 promoter luciferase reporter, N-TLR7/N-vector); type: cell-based; conditions: final IRM concentration 10 μM, 18 hours, normalized to the DMSO without compound control
Experimental: as §1
Unless otherwise indicated, all incubations were performed at 37° C. with 5% CO2 at 98% humidity.
Culture medium was prepared from complete RPMI 1640 medium (BioSource International, Inc., Camarillo, Calif.). Fetal bovine serum (Atlas Biologicals, Inc., Ft. Collins, Colo.) was added to a final concentration of 7.5% (vol/vol); L-glutamine (BioSource International, Inc.) was added to 5 mM; and sodium pyruvate (BioSource International, Inc.) was added to 1 mM.
Namalwa cells were grown by incubation in culture medium overnight. Cells were harvested by centrifugation in a tabletop centrifuge (1200 RPM for 5 minutes), and then resuspended in phosphate buffered sucrose to a concentration of 1.3×10^7 cells/mL.
For each transfection, a 750 μL aliquot of the cell suspension was placed in an electroporation cuvette with 4 mm gaps. Each aliquot received transfection DNA: 10 μg of pGL3-Enhancing vector (Promega Corp., Madison, Wis.) containing the human IFN-α1 promoter cloned into the BglII site (pIFN-α1-luc), and 10 μg of pCI-neo mammalian expression vector (Promega Corp.) either (1) unmodified (N-vector) or (2) containing an expressible human TLR7 gene (N-TLR7). The cell and vector mixtures were incubated at room temperature for 5 minutes. The cells were electroporated using a BioRad Gene Pulser (BioRad Laboratories, Hercules, Calif.) set to at 500 μF capacitance and […], then incubated at room temperature for 5 minutes.
The electroporated cells were suspended in 10 mL of culture medium and incubated overnight. Dead cells and debris were removed after 24 hours using a MACS Dead Cell Removal kit (Miltenyi Biotec, Auburn, Calif.). Cells were resuspended in 10 mL of culture medium and incubated for an additional 24 hours.
Transfected cells were selected by adding G418 (Promega Corp., Madison, Wisc.) to a final concentration of 1 mg/mL and incubating the cells for seven days.
The selected transfected cells were counted and resuspended to a concentration of 1×10^6 cell per mL in culture medium. 100 μl aliquots of cells were placed in the wells of a white-walled, white-bottomed 96-well plate (Corning, Inc. Corning, N.Y.). 1.0 μL of an IRM compound from Table 1 (prepared at 1 mM in 100% DMSO) was added to some cell aliquots so that the final concentration of IRM compound was 10 μM. As a positive control, some cell aliquots were incubated with Sendai virus instead of IRM compound. As a negative control, some cell aliquots were incubated with DMSO without IRM compound. In all cases, the cells were incubated for 18 hours.
The plates were equilibrated to room temperature before 1 volume of reconstituted LucLight Plus (Packard Instruments, Meriden, Conn.) was added to each aliquot of cells. Each well of the plate was read on an LJL Analyst (LJL Biosystems, Inc., Sunnyvale, Calif.) set with a 5 minute dark adapt.
as §2

Structure (SMILES)	H-TLR7: fold increase in TLR7-mediated luciferase signal (H-TLR7/H-vector), NF-κB-dependent reporter (human TLR7 [1]) [fold]	N-TLR7: fold increase in TLR7-mediated luciferase signal (N-TLR7/N-vector), IFN-α1 promoter reporter (human TLR7 [2]) [fold]
CCCCc1nc2c(N)nc3ncccc3c2n1CC(C)C [IRM10, 2-butyl-1-(2-methylpropyl)-1H-imidazo[4,5-c][1,8]naphthyridin-4-amine]	1.1	4.4
CCOCc1nc2c(N)nc3ccccc3c2n1CC(C)C [IRM22, 2-(ethoxymethyl)-1-(2-methylpropyl)-1H-imidazo[4,5-c]quinolin-4-amine]	5.5	2.2
CCCCc1nc2c(N)nc3ccccc3c2n1CCCNC(=O)c1cc2ccccc2cn1 [IRM3, N-[3-(4-amino-2-butyl-1H-imidazo[4,5-c]quinolin-1-yl)propyl]isoquinoline-3-carboxamide]	4.2	1.9
CCCCc1nc2c(N)nc(C)c(C)c2n1CCCCNC(=O)c1ccccc1 [IRM13, N-[4-(4-amino-2-butyl-6,7-dimethyl-1H-imidazo[4,5-c]pyridin-1-yl)butyl]benzamide]	1.0	2.6
Cc1nc2c(N)nc3ccccc3c2n1CCOCCNS(C)(=O)=O [IRM19, N-{2-[2-(4-amino-2-methyl-1H-imidazo[4,5-c]-1-yl)ethoxy]ethyl}methanesulfonamide]	0.9	3.3
CCCCc1nc2c(N)nc3cccnc3c2n1CCNC(=O)C(N)CC(C)C (stereo not drawn) [IRM11, N^1-[2-(4-amino-2-butyl-1H-imidazo[4,5-c][1,5]naphthyridin-1-yl)ethyl]-2-amino-4-methylpentanamide]	0.5	2.8
CCCCc1nc2c(N)nc3ccccc3c2n1CCCCCS(C)(=O)=O [IRM23, 2-butyl-1-[5-(methylsulfonyl)pentyl]-1H-imidazo[4,5-c]quinolin-4-amine]	9.4	2.8
Cc1nc2c(N)nc3ccccc3c2n1CCOC/C=C/c1ccccc1 [IRM5, 2-methyl-1-(2-{[(2E)-3-phenylprop-2-enyl]oxy}ethyl)-1H-imidazo[4,5-c]quinolin-4-amine]	3.4	1.6
CCCc1nc2c(N)nc3ccccc3c2n1CCCCS(C)(=O)=O [IRM21, 1-[4-(methylsulfonyl)butyl]-2-propyl-1H-imidazo[4,5-c]quinolin-4-amine]	0.7	3.8
COCCc1nc2c(N)nc3c(c2n1CC(C)(C)NS(C)(=O)=O)CCCC3 [IRM25, N-{2-[4-amino-2-(2-methoxyethyl)-6,7,8,9-tetrahydro-1H-imidazo[4,5-c]quinolin-1-yl]-1,dimethylethyl}methanesulfonamide]	7.6	3.0
Nc1nc2ccccc2c2c1ncn2CCOCCCc1cncnc1 [IRM12, 1-{2-[3-(5-pyrimidinyl)propoxy]ethyl}-1H-imidazo[4,5-c]quinolin-4-amine]	0.6	2.6
COCCc1nc2c(N)nc3ccccc3c2n1CCCNS(=O)(=O)c1ccccc1 [IRM7, N-{3-[4-amino-2-(2-methoxyethyl)-1H-imidazo[4,5-c]-1-yl]propyl}benzenesulfonamide]	4.7	1.6
